Measurements reported in patent US20140107015A1, “PHARAMACEUTICAL COMPOSITION FOR PREVENTING OR TREATING HUMAN IMMUNODEFICIENCY VIRUS” (priority 2012, published 2014).
Read-outs that look alike come from different tables or passages of the source.

Columns and labels:
HIV-1 protease [1] = molecular target: T1, HIV-1 protease (Human immunodeficiency virus type 1 group M subtype B, UniProt P05959); assay: Protease assay with protease diluents of C8166 and CEM-SS infected with HIV-1RF, various concentrations; assay type: biochemical; conditions: 0.05, 0.1, 0.25, 0.5, and 1 mg/ml; FIG. 30
T1 construct: endogenous in cells; host or cells: C8166 and CEM-SS cells infected with HIV-1RF
Experimental: First, the HIV-1 protease inhibiting activity was measured by using the same method as in Example <3-3> except that the protease diluents of two cell lines, C8166 and CEM-SS infected with HIV-1RF.

HIV-1 protease [2] = conditions: 0.5 mg/ml; HIV-1RF/HIV-1IIIB; FIG. 24
Experimental: The amino acid sequence of FRET peptide is made by copying p17/p24 decomposition site by HIV-1 protease on a precursor Gag protein. FRET peptide is decomposed by HIV-1 protease and fluoresces.
Since then, 20 μl of substrate was added to HIV-1 protease that is pre-cultured at the same temperature for the same period and then slowly well-mixed for 30 to 60 second, completely. Since then, the fluorescence was measured at Ex/Em=340 nm/490 nm. The inhibiting rate was estimated as a relatively value to 100 of the fluorescence of the sample without an inhibitor.

[3] = test system: C8166 cell lines infected with HIV-1RF; assay: Syncytia formation in C8166 cells infected with HIV-1RF (microscopy, 48 hours); assay type: cell-based; conditions: 0.5 mg/ml; for number of syncytia formation per well versus untreated control: FIG. 22; for syncytia formation observed with a microscope: FIGS. 18, 19, 21
Experimental: Since then, a degree of syncytia formation was observed by using a microscope.
When the virus infection stimulating cell fusion was analyzed, the syncytia formation was tested in order to investigate the virus infection.
Specifically, 1×10^5 C8166 cells in aliquots of 300 μl were seeded in triplicate to a 48-well plate containing 100 μl of serial dilutions of COS-amino acids (each of chitosan oligomer-amino acid conjugate) in complete RPMI-1640 medium with 5% FBS. After 2 hours of incubation, the cells were infected with 100 μl of stock supernatant of HIV-1RF diluted in complete medium at 200 CCID50 (μg/ml). The plates were incubated at 37° C. for 48 hours and the formation of syncytia was determined microscopically by using an inverted microscope (Leica Microsystems, Germany).
After 2 hours of incubation, the cells were infected with 100 μl of stock supernatant of HIV-1RF diluted in complete medium at 200 CCID50 (μg/ml). The plates were incubated at 37° C. for 48 hours and the formation of syncytia was determined microscopically by using an inverted microscope.

[4] = molecular target: HIV-1 reverse transcriptase (UniProt P04585); conditions: for reverse transcriptase (RT) activity inhibition: 0.5 mg/ml, FIG. 23
[5] = test system: HIV-1 protease of HIV-1saq; assay: SensoLyte 520 HIV-1 protease FRET assay in saquinavir resistant HIV-1saq; assay type: biochemical; conditions: saquinavir resistant strain; FIG. 25
Text: Meanwhile, the present inventors examined HIV-1 protease inhibiting effect using other cell lines of HIV-1. They use HIV-1saq that is a cell line having a resistance to saquinavir.
Saquinavir was used as a positive control group.

[6] = test system: H9 cells infected with HIV-1IIIB; assay: HIV-1 p24 antigen capture ELISA of culture supernatant; assay type: cell-based; conditions: various concentrations; FIG. 31
Experimental: In order to measure p24 amount secreted from virus, H9 cells (3×10^6 cells/ml) was cultured at 37° C. for 1 hour in the presence of HIV-1IIIB. The unbound virus was removed from the cells by washing, and re-suspended in the culture medium to be 3×10^5 cells/ml. 1 mL of aliquot was injected to 24-well plate including the medium having the same volume containing COS-E sample. In order to measure the amount of virus secreted in the medium, HIV-1 p24 antigen capture ELISA was performed according to the manufacturer's instruction using a commercial kit (Perkin-Elmer Life Sciences, Boston, Mass.).

[7] = test system: C8166 cell lines infected with HIV-1IIIB; conditions: 0.5 mg/ml; for cell viability of HIV-1-infected C8166 cells: 48 hours after HIV-1IIIB infection, MTT, untreated cells = 100%; for cell protecting effect from HIV-1 lysis activity (cell deaths): FIG. 17 and 20
Experimental: And then, the cytotoxicities were measured through MTT assay as time passed.
Since C8166 cell lines were sensitive about lysis effect of HIV-1 replication, the present test evaluated a degree of inhibiting HIV-1 replication based on the sensitivity of C8166 cells at lysis activity due to HIV-1 infection in the present experiment.
Since then, the supernatants of HIV-1IIIB were diluted in complete medium to yield sufficient cytopathicity, and a 100 μl aliquot was added to the wells. Plates were incubated for 24 h, 48 h and 72 h at 37° C. and after each respective incubation, 100 μl of 500 μg/ml MTT solution was added to each well and the plate was incubated for another 4 hours at 37° C. The formazan salt was dissolved in acidified propanol containing 50% DMSO and 4% triton X-100. […] The optical density of formazan formed by untreated cells was taken as 100% of viability.

[8] = molecular target: T2, HIV-1 reverse transcriptase (Human immunodeficiency virus type 1 group M subtype B, UniProt P05959); assay type: biochemical; conditions: for reverse transcriptase inhibiting activity over concentrations: 0.05, 0.1, 0.25, 0.5, and 1 mg/ml, FIGS. 26, 27
T2 construct: endogenous in cells; host or cells: C8166 and CEM-SS cells infected with HIV-1RF (lysates)

[9] = test system: TZM-b1 cell infected with HIV-1IIIB; conditions: for HIV-1 replication (gene reporter): 0.05, 0.1, 0.5, and 1 mg/ml, 48 hours, FIG. 38; for HIV-1 replication inhibition relative to the other samples: among COS-D, COS-T, COS-Y, COS-TD, COS-TY
Experimental: Briefly, one day before infection, 5×10^4 TZM-d1 cells were seeded in a 24-well flat, and added with 100 μl of HIV-1IIIB supernatant (100 CCID50 (1 μg/ml)) to infect 50% of the cells. […] After incubation, cells were washed with cold PBS and lysed in 300 μl of lysis buffer (Promega Corp., Madison, Wis.). 20 μl of cell lysate was mixed with 100 μl of luciferase substrate (Promega) and light emission was measured for 10 seconds in a luminometer (Tecan Austria GmbH, Austria). In case of β-galactosidase assay, 100 μl of X-gal substrate was mixed with cell lysate in order to stain the HIV-1 replicated cells and light absorption was measured at the optical density of 550 nm.

[10] = test system: C8166 cells infected with HIV-1RF; assay: Syncytia formation inhibition in C8166 infected with HIV-1RF, various concentrations, 96 hours; assay type: cell-based; conditions: for syncytia formation inhibition over concentrations: 0.2, 0.4, 0.6, 0.8, and 1.0 mg/ml, 96 hours, FIGS. 28, 29
Experimental: Specifically, 1×10^5C8166 cells in aliquots of 300 μl were seeded in triplicate to a 48-well plate containing 100 μl of serial dilutions of COS-N in complete RPMI-1640 medium with 5% FBS. After 2 hours of incubation, the cells were infected with 100 μl of stock supernatant of HIV-1RF diluted in complete medium at 200 CCID50 (μg/ml). The plates were incubated at 37° C. for 96 hours and the formation of syncytia was determined microscopically by using an inverted microscope (Leica Microsystems, Germany). Dextran sulfate having the syncytia formation inhibiting effect was used as a positive control group.
The syncytia formation effect was measured by using the same method as in Example <4-3>.

[11] = test system: H9 cells infected with HIV-1IIIB; assay: Western blot analysis of p24 protein amount in cells; assay type: cell-based; conditions: 0.01 to 1 mg/ml; cultured for 4 days; FIG. 34
Experimental: The total cultured cells were lysised in RIPA buffer solution (Sigma-Aldrich Corp., St. Louis, USA), centrifuged, and then the total protein amount of cell lysate was measured by using Lowry method (BioRad Laboratories, Hercules, Calif.). The aliquot supernatant including the same volume of protein (15 μg) was subjected to 10% or 12% SDS-PAGE gel, transferred on a nitrocellulose membrane (Amersham Pharmacia Biotech., England, UK), and blocked in Tris buffered saline containing 0.1% (v/v) Tween-20 (TBS-T) and 5% skim milk powder for at least 1 hour. The membrane was hybridized with mouse anti-p24 monoclonal antibody (Santa Cruz Biotechnology Inc., CA, USA). All the primary monoclonal antibodies were diluted with TBS-T at a ratio of 1:1000. The antibody was detected with Horseradish peroxidase (HRP)-conjugated anti-mouse IgG secondary antibody for 1 hour. The immune reactive protein was detected by using a chemical fluorescence ECL detecting kit (Amersham Pharmacia Biosciences, England, UK) according to the manufacturer's instruction. The western blot bands were visualized by LAS3000® chemiluminescence (Fujifilm Life Science, Tokyo, Japan).

[12] = test system: CEM-SS cells infected with HIV-1IIIB and HIV-1Saq; conditions: 0.5 mg/ml; FIG. 37
Experimental: Uninfected CEM-SS cells were cultured into individual wells of a 48-well microtiter plate at a density of 3×10^4 cells/well in 400 μl of medium. Diluted HIV-1IIIB and HIV-1Saq stock supernatants (100 μl) were added to appropriate wells to yield a final M.O.I of 1.0 (CCID50). […] After a total of 4 days incubation, in order to measure the amount of p24 production, HIV-1 p24 antigen capture ELISA was performed using the commercial kit (Perkin-Elmer Life Sciences, Boston, Mass.) according to the manufacturer's instruction.

[13] = test system: uninfected C8166 cell lines co-cultured with H9 cells infected with HIV-1IIIB; assay: Syncytia formation in co-culture of uninfected C8166 with H9 infected with HIV-1IIIB; assay type: cell-based; conditions: for syncytia formation in co-culture over concentrations: 0.2, 0.4, 0.6, 0.8, and 1 mg/ml, 96 hours, FIGS. 32, 33; for syncytia formation inhibition in co-culture compared with positive control group: positive control Dextran sulfate
Experimental: After 96 hours, the formed syncytia was counted by using a microscope (100×). Dextran sulfate having the syncytia formation inhibiting effect was used as a positive control group.

[14] = test system: H9 cells infected with HIV-1IIIB; assay: RT-PCR analysis of HIV-1 gene (Vif, Env, Gag) expression; assay type: cell-based; conditions: for Vif, Env, and Gag genes expressions: 0.05, 0.1, 0.5, and 1 mg/ml, 4 days, FIG. 35; for Env gene expression: as treatment concentrations were increased
Experimental: RNA in the total cells cultured was isolated by using Trizol reagent (Invitrogen Co., CA, USA). 2 μg of isolated RNA was reverse-transcripted into cDNA using an oligo-(dT) primer (Promega, Madison, Wis., USA). […] A PCR product was isolated by subjecting an electrophoresis on 1.5% agarose gel at 100 V for 10 minutes. The gel was stained with 1 mg/ml of EtBr, and then photographed under UV illumination by using AlphaEas® gel image analysis software (Alpha Innotech., San Leandro, Calif., USA).

[15] = test system: 8E5 and MOLT-4 cell lines; assay: Syncytia formation in co-culture of 8E5 and MOLT-4 cell lines; assay type: cell-based; conditions: 0.5 mg/ml; for number of syncytia formed with time: FIG. 36; for syncytia formation inhibiting effect compared with control group: positive control AZT-Saq
Experimental: The number of syncytia formed with time was determined. Mock was an experimental group without the sample and AZT-Saq treated with AZT and saquinavir at the same time was used as a positive control.

[16] = sample 0.5 mg/ml, mean of HIV-1RF and HIV-1IIIB

Chitosan oligomer-Glutamic acid [COS-E]
HIV-1 protease inhibition over concentrations (HIV-1 protease [1]): depending on the concentration
HIV-1 protease inhibition (HIV-1 protease [2]): effectively inhibited
number of syncytia formation per well versus untreated control [3]: significantly inhibited
syncytia formation observed with a microscope [3]: inhibited
IC50 (RT inhibition) ([4]; mean of HIV-1RF and HIV-1IIIB): 1036 mg/L
RT Inhibition (%) [4, 16]: 32.7%
HIV-1 protease inhibition in HIV-1saq [5]: effectively inhibited
p24 secretion amount (production amount) in culture supernatant [6]: effectively inhibited

Chitosan oligomer-Aspartic acid [COS-D]
number of syncytia formation per well versus untreated control [3]: significantly inhibited
syncytia formation observed with a microscope [3]: inhibited
cell viability of HIV-1-infected C8166 cells [7]: 78.8%
reverse transcriptase inhibiting effect at 0.05 mg/ml ([8]; 0.05 mg/ml): no the reverse transcriptase inhibiting effect
reverse transcriptase activity at low concentrations ([8]; 0.05 mg/ml and 0.1 mg/ml): not inhibited
reverse transcriptase inhibiting activity over concentrations [8]: depending on the concentration
reverse transcriptase (RT) activity inhibition [4]: effectively inhibited
RT Inhibition (%) [4, 16]: 83.4%
HIV-1 replication (gene reporter) [9]: inhibited the HIV-1 replication depending on the concentration

Chitosan oligomer-Threonine [COS-T]
number of syncytia formation per well versus untreated control [3]: significantly inhibited
syncytia formation observed with a microscope [3]: inhibited
cell viability of HIV-1-infected C8166 cells [7]: 72.3%
IC50 (RT inhibition) ([4]; mean of HIV-1RF and HIV-1IIIB): 761 mg/L
RT Inhibition (%) [4, 16]: 55.3%
HIV-1 replication (gene reporter) [9]: inhibited the HIV-1 replication depending on the concentration
syncytia formation inhibiting activity at 0.5 mg/ml or more ([10]; 0.5 mg/ml or more, as compared with COS-N): very sharply increased
syncytia formation inhibition over concentrations [10]: depending on the concentration

Cc1cn([C@H]2C[C@H](N=[N+]=[N-])[C@@H](CO)O2)c(=O)[nH]c1=O [AZT, zidovudine, reference compound]
RT Inhibition (%) ([4]; positive control 2 μM, mean of HIV-1RF and HIV-1IIIB): 82.6%
IC50 ([4]; read-out: IC50 (RT inhibition), mean of HIV-1RF and HIV-1IIIB): 303 µM

Chitosan oligomer-Asparagine [COS-N]
number of syncytia formation per well versus untreated control [3]: significantly inhibited
syncytia formation observed with a microscope [3]: inhibited
cell viability of HIV-1-infected C8166 cells [7]: 71.2%
IC50 (RT inhibition) ([4]; mean of HIV-1RF and HIV-1IIIB): 954 mg/L
RT Inhibition (%) [4, 16]: 41.8%
syncytia formation inhibition over concentrations [10]: depending on the concentration
syncytia formation inhibition compared with positive control group ([10]; positive control Dextran sulfate): more effective

Chitosan oligomer-Tyrosine [COS-Y]
number of syncytia formation per well versus untreated control [3]: significantly inhibited
syncytia formation observed with a microscope [3]: inhibited
reverse transcriptase inhibiting activity over concentrations [8]: depending on the concentration
reverse transcriptase (RT) activity inhibition [4]: effectively inhibited
RT Inhibition (%) [4, 16]: 83.5%
HIV-1 replication (gene reporter) [9]: inhibited the HIV-1 replication depending on the concentration

Chitosan oligomer-(Threonine-Aspartic acid) [COS-TD]
p24 antigen production (western blot) [11]: inhibited depending on the treatment concentrations
p24 production inhibiting activity with later addition [12]: reduced as time passes
number of syncytia formation per well versus untreated control [3]: more significantly inhibited
syncytia formation observed with a microscope [3]: rarely formed
syncytia formation in co-culture over concentrations [13]: inhibited depending on the treated concentration
syncytia formation inhibition in co-culture compared with positive control group [13]: more effective
cell viability of HIV-1-infected C8166 cells [7]: 94.6%
cell protecting effect from HIV-1 lysis activity (cell deaths) [7]: high cell protecting effect
reverse transcriptase (RT) activity inhibition [4]: effectively inhibited
IC50 (RT inhibition) ([4]; mean of HIV-1RF and HIV-1IIIB): 207 mg/L
RT Inhibition (%) [4, 16]: 85.1%
HIV-1 replication (gene reporter) [9]: inhibited the HIV-1 replication depending on the concentration
HIV-1 replication inhibition relative to the other samples [9]: more effective
Vif, Env, and Gag genes expressions [14]: reduced depending on the treatment concentrations
Env gene expression [14]: significantly inhibited
number of syncytia formed with time [15]: not increased
syncytia formation inhibiting effect compared with control group [15]: high syncytia formation inhibiting effect

Chitosan oligomer-(Threonine-Tyrosine) [COS-TY]
p24 antigen production (western blot) [11]: inhibited depending on the treatment concentrations
p24 production inhibiting activity with later addition [12]: reduced as time passes
number of syncytia formation per well versus untreated control [3]: more significantly inhibited
syncytia formation observed with a microscope [3]: rarely formed
syncytia formation in co-culture over concentrations [13]: inhibited depending on the treated concentration
syncytia formation inhibition in co-culture compared with positive control group [13]: more effective
cell protecting effect from HIV-1 lysis activity (cell deaths) [7]: high cell protecting effect
reverse transcriptase (RT) activity inhibition [4]: effectively inhibited
RT Inhibition (%) [4, 16]: 85.8%
HIV-1 replication (gene reporter) [9]: inhibited the HIV-1 replication depending on the concentration
HIV-1 replication inhibition relative to the other samples [9]: more effective
Vif, Env, and Gag genes expressions [14]: reduced depending on the treatment concentrations
Env gene expression [14]: significantly inhibited
number of syncytia formed with time [15]: not increased
syncytia formation inhibiting effect compared with control group [15]: high syncytia formation inhibiting effect
